Data reported in the supplement of paper PMC10307832.

Tests used:
Test in all cases: relative viability (nuclei count vs DMSO), 5 days (fraction); higher = more cells survive
NCI-H1563 = tested on: NCI-H1563
Method in brief: (§1)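 Dosing by pin tool came one day after lung cancer cell lines were seeded in 1536-well plates, using either one drug or a fixed anchor-drug dose plus five library-drug doses (not always all listed) in √10 steps. After 5 days, nuclei were counted on 4× images. Relative viability is treated-well nuclei count divided by vehicle-well nuclei count, and values are medians of duplicate plates.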

H3255 = tested on: H3255
Method in brief: as §1

NCI-H1993 = tested on: NCI-H1993
Method in brief: as §1

201T = tested on: 201T
Method in brief: as §1

NCI-H2085 = tested on: NCI-H2085
Method in brief: as §1

NCI-H1650 = tested on: NCI-H1650
Method in brief: as §1

EPLC-272H = tested on: EPLC-272H
Method in brief: as §1

LOU-NH91 = tested on: LOU-NH91
Method in brief: as §1

NCI-H2170 = tested on: NCI-H2170
Method in brief: as §1

RERF-LC-KJ = tested on: RERF-LC-KJ
Method in brief: as §1

PC-14 = tested on: PC-14
Method in brief: as §1

HCC-44 = tested on: HCC-44
Method in brief: as §1

NCI-H520 = tested on: NCI-H520
Method in brief: as §1

NCI-H647 = tested on: NCI-H647
Method in brief: as §1

NCI-H2023 = tested on: NCI-H2023
Method in brief: as §1

NCI-H1734 = tested on: NCI-H1734
Method in brief: as §1

NCI-H2347 = tested on: NCI-H2347
Method in brief: as §1

NCI-H3122 = tested on: NCI-H3122
Method in brief: as §1

NCI-H2405 = tested on: NCI-H2405
Method in brief: as §1

NCI-H1793 = tested on: NCI-H1793
Method in brief: as §1

NCI-H441 = tested on: NCI-H441
Method in brief: as §1

COR-L23 = tested on: COR-L23
Method in brief: as §1

Question: With CC1(C)CCC(c2ccc(Cl)cc2)=C(CN2CCN(c3ccc(C(=O)NS(=O)(=O)c4ccc(N[C@H](CCN5CCOCC5)CSc5ccccc5)c(S(=O)(=O)C(F)(F)F)c4)cc3)CC2)C1 [Navitoclax] + CS(=O)(=O)N1CCN(Cc2cc3nc(-c4cccc5[nH]ncc45)nc(N4CCOCC4)c3s2)CC1 [Pictilisib] (partner 1 µM) as the compound, how does the relative viability (NCI-H1563; first compound 0.005 µM) read?
Answer: 0.603

Question: What about the relative viability (NCI-H1563; first compound 0.01581 µM) of the same compound?
Answer: 0.667

Question: And the relative viability (NCI-H1563; first compound 0.05 µM)?
Answer: 0.577

Question: What about the relative viability (NCI-H1563; first compound 0.1581 µM) of the same compound?
Answer: 0.583

Question: And the relative viability (NCI-H1563; first compound 0.5 µM)?
Answer: 0.693

Question: What about the relative viability (H3255; first compound 0.005 µM) of the same compound?
Answer: 0.524

Question: And the relative viability (H3255; first compound 0.01581 µM)?
Answer: 0.528

Question: And the relative viability (H3255; first compound 0.05 µM)?
Answer: 0.549

Question: And the relative viability (H3255; first compound 0.1581 µM)?
Answer: 0.45

Question: What about the relative viability (H3255; first compound 0.5 µM) of the same compound?
Answer: 0.461

Question: And the relative viability (NCI-H1993; first compound 0.005 µM)?
Answer: 0.808

Question: And the relative viability (NCI-H1993; first compound 0.01581 µM)?
Answer: 0.853

Question: What about the relative viability (NCI-H1993; first compound 0.05 µM) of the same compound?
Answer: 0.803

Question: And the relative viability (NCI-H1993; first compound 0.1581 µM)?
Answer: 0.792

Question: What about the relative viability (NCI-H1993; first compound 0.5 µM) of the same compound?
Answer: 0.925

Question: What about the relative viability (201T; first compound 0.005 µM) of the same compound?
Answer: 0.661

Question: And the relative viability (201T; first compound 0.01581 µM)?
Answer: 0.738

Question: What about the relative viability (201T; first compound 0.05 µM) of the same compound?
Answer: 0.677

Question: What about the relative viability (201T; first compound 0.1581 µM) of the same compound?
Answer: 0.65

Question: What about the relative viability (201T; first compound 0.5 µM) of the same compound?
Answer: 0.707

Question: What about the relative viability (NCI-H2085; first compound 0.005 µM) of the same compound?
Answer: 0.449

Question: What about the relative viability (NCI-H2085; first compound 0.01581 µM) of the same compound?
Answer: 0.49

Question: And the relative viability (NCI-H2085; first compound 0.05 µM)?
Answer: 0.475

Question: What about the relative viability (NCI-H2085; first compound 0.1581 µM) of the same compound?
Answer: 0.507

Question: And the relative viability (NCI-H2085; first compound 0.5 µM)?
Answer: 0.596

Question: What about the relative viability (NCI-H1650; first compound 0.005 µM) of the same compound?
Answer: 0.541

Question: What about the relative viability (NCI-H1650; first compound 0.01581 µM) of the same compound?
Answer: 0.737

Question: What about the relative viability (NCI-H1650; first compound 0.05 µM) of the same compound?
Answer: 0.656

Question: And the relative viability (NCI-H1650; first compound 0.1581 µM)?
Answer: 0.623

Question: What about the relative viability (NCI-H1650; first compound 0.5 µM) of the same compound?
Answer: 0.394

Question: And the relative viability (EPLC-272H; first compound 0.005 µM)?
Answer: 0.321

Question: And the relative viability (EPLC-272H; first compound 0.1581 µM)?
Answer: 0.325

Question: And the relative viability (EPLC-272H; first compound 0.5 µM)?
Answer: 0.306

Question: What about the relative viability (LOU-NH91; first compound 0.005 µM) of the same compound?
Answer: 0.51

Question: And the relative viability (LOU-NH91; first compound 0.01581 µM)?
Answer: 0.513

Question: And the relative viability (LOU-NH91; first compound 0.05 µM)?
Answer: 0.556

Question: What about the relative viability (LOU-NH91; first compound 0.1581 µM) of the same compound?
Answer: 0.496

Question: What about the relative viability (LOU-NH91; first compound 0.5 µM) of the same compound?
Answer: 0.393

Question: What about the relative viability (NCI-H2170; first compound 0.005 µM) of the same compound?
Answer: 0.306

Question: And the relative viability (NCI-H2170; first compound 0.01581 µM)?
Answer: 0.327

Question: What about the relative viability (NCI-H2170; first compound 0.05 µM) of the same compound?
Answer: 0.334

Question: And the relative viability (NCI-H2170; first compound 0.1581 µM)?
Answer: 0.243

Question: What about the relative viability (NCI-H2170; first compound 0.5 µM) of the same compound?
Answer: 0.203

Question: And the relative viability (RERF-LC-KJ; first compound 0.005 µM)?
Answer: 0.446

Question: What about the relative viability (RERF-LC-KJ; first compound 0.01581 µM) of the same compound?
Answer: 0.55

Question: And the relative viability (RERF-LC-KJ; first compound 0.05 µM)?
Answer: 0.589

Question: What about the relative viability (RERF-LC-KJ; first compound 0.1581 µM) of the same compound?
Answer: 0.476

Question: What about the relative viability (RERF-LC-KJ; first compound 0.5 µM) of the same compound?
Answer: 0.568

Question: And the relative viability (PC-14; first compound 0.005 µM)?
Answer: 0.648

Question: And the relative viability (PC-14; first compound 0.01581 µM)?
Answer: 0.956

Question: And the relative viability (PC-14; first compound 0.05 µM)?
Answer: 0.746

Question: What about the relative viability (PC-14; first compound 0.1581 µM) of the same compound?
Answer: 0.748

Question: What about the relative viability (PC-14; first compound 0.5 µM) of the same compound?
Answer: 0.68

Question: What about the relative viability (HCC-44; first compound 0.005 µM) of the same compound?
Answer: 0.656

Question: And the relative viability (HCC-44; first compound 0.01581 µM)?
Answer: 0.641

Question: And the relative viability (HCC-44; first compound 0.05 µM)?
Answer: 0.849

Question: What about the relative viability (HCC-44; first compound 0.1581 µM) of the same compound?
Answer: 0.57

Question: And the relative viability (HCC-44; first compound 0.5 µM)?
Answer: 0.456

Question: And the relative viability (NCI-H520; first compound 0.005 µM)?
Answer: 0.305

Question: What about the relative viability (NCI-H520; first compound 0.01581 µM) of the same compound?
Answer: 0.374

Question: What about the relative viability (NCI-H520; first compound 0.05 µM) of the same compound?
Answer: 0.3

Question: And the relative viability (NCI-H520; first compound 0.1581 µM)?
Answer: 0.322

Question: What about the relative viability (NCI-H520; first compound 0.5 µM) of the same compound?
Answer: 0.281

Question: And the relative viability (NCI-H647; first compound 0.005 µM)?
Answer: 0.539

Question: What about the relative viability (NCI-H647; first compound 0.01581 µM) of the same compound?
Answer: 0.396

Question: And the relative viability (NCI-H647; first compound 0.05 µM)?
Answer: 0.385

Question: And the relative viability (NCI-H647; first compound 0.1581 µM)?
Answer: 0.422

Question: And the relative viability (NCI-H647; first compound 0.5 µM)?
Answer: 0.453

Question: And the relative viability (NCI-H2023; first compound 0.005 µM)?
Answer: 0.282

Question: What about the relative viability (NCI-H2023; first compound 0.01581 µM) of the same compound?
Answer: 0.248

Question: And the relative viability (NCI-H2023; first compound 0.05 µM)?
Answer: 0.22

Question: What about the relative viability (NCI-H2023; first compound 0.1581 µM) of the same compound?
Answer: 0.263

Question: And the relative viability (NCI-H2023; first compound 0.5 µM)?
Answer: 0.269

Question: And the relative viability (NCI-H1734; first compound 0.005 µM)?
Answer: 0.455

Question: And the relative viability (NCI-H1734; first compound 0.01581 µM)?
Answer: 0.481

Question: What about the relative viability (NCI-H1734; first compound 0.1581 µM) of the same compound?
Answer: 0.49

Question: What about the relative viability (NCI-H1734; first compound 0.5 µM) of the same compound?
Answer: 0.465

Question: What about the relative viability (NCI-H2347; first compound 0.005 µM) of the same compound?
Answer: 0.63

Question: What about the relative viability (NCI-H2347; first compound 0.01581 µM) of the same compound?
Answer: 0.702

Question: And the relative viability (NCI-H2347; first compound 0.05 µM)?
Answer: 0.649

Question: What about the relative viability (NCI-H2347; first compound 0.1581 µM) of the same compound?
Answer: 0.395

Question: What about the relative viability (NCI-H2347; first compound 0.5 µM) of the same compound?
Answer: 0.734

Question: What about the relative viability (NCI-H3122; first compound 0.005 µM) of the same compound?
Answer: 0.592

Question: What about the relative viability (NCI-H3122; first compound 0.01581 µM) of the same compound?
Answer: 0.585

Question: What about the relative viability (NCI-H3122; first compound 0.05 µM) of the same compound?
Answer: 0.537

Question: And the relative viability (NCI-H3122; first compound 0.1581 µM)?
Answer: 0.601

Question: And the relative viability (NCI-H3122; first compound 0.5 µM)?
Answer: 0.55

Question: And the relative viability (NCI-H2405; first compound 0.005 µM)?
Answer: 0.409

Question: And the relative viability (NCI-H2405; first compound 0.01581 µM)?
Answer: 0.754

Question: What about the relative viability (NCI-H2405; first compound 0.05 µM) of the same compound?
Answer: 0.434

Question: What about the relative viability (NCI-H2405; first compound 0.1581 µM) of the same compound?
Answer: 0.451

Question: What about the relative viability (NCI-H2405; first compound 0.5 µM) of the same compound?
Answer: 0.41

Question: What about the relative viability (NCI-H1793; first compound 0.005 µM) of the same compound?
Answer: 0.317

Question: And the relative viability (NCI-H1793; first compound 0.01581 µM)?
Answer: 0.505

Question: What about the relative viability (NCI-H1793; first compound 0.05 µM) of the same compound?
Answer: 0.301

Question: What about the relative viability (NCI-H1793; first compound 0.1581 µM) of the same compound?
Answer: 0.226

Question: What about the relative viability (NCI-H1793; first compound 0.5 µM) of the same compound?
Answer: 0.242

Question: And the relative viability (NCI-H441; first compound 0.005 µM)?
Answer: 0.441

Question: And the relative viability (NCI-H441; first compound 0.01581 µM)?
Answer: 0.606

Question: And the relative viability (NCI-H441; first compound 0.05 µM)?
Answer: 0.433

Question: What about the relative viability (NCI-H441; first compound 0.1581 µM) of the same compound?
Answer: 0.529

Question: And the relative viability (NCI-H441; first compound 0.5 µM)?
Answer: 0.458

Question: And the relative viability (COR-L23; first compound 0.005 µM)?
Answer: 0.733

Question: And the relative viability (COR-L23; first compound 0.01581 µM)?
Answer: 0.919

Question: And the relative viability (COR-L23; first compound 0.05 µM)?
Answer: 0.818

Question: And the relative viability (COR-L23; first compound 0.1581 µM)?
Answer: 0.763

Question: And the relative viability (COR-L23; first compound 0.5 µM)?
Answer: 0.932
